Data reported in publication PMC11044139, “Comparative Study of Toxic Terpenoidal Aldehydes and Lactone Derivatives from the European Polypore Bondarzewia mesenterica” (ACS Omega, 2024).
In brackets after ≈: the same amount, converted by molar mass. Several values for one entry are separate records, joined by “and”; a condition that tells them apart may be missing. Equal values may be shown once. Read-outs that look alike come from different tables or passages of the source.

Experiments:
mouse fibroblast (L929) = test: Cytotoxicity (MTT) assay, L929; assay type: cell-based; conditions: for IC50: Mus musculus, n.a. = no activity
From the text: (§1) MTT (3-(4,5-dimethylthiayol-2-yl)-2,5-diphenyltetrazolium bromide)-based assay was used to determine in vitro cytotoxicity as previously reported.[24] The tested mammalian cell lines included mouse fibroblasts (L929), endocervical adenocarcinoma (KB3.1), human lung carcinoma (A549), breast adenocarcinoma (MCF-7), prostate carcinoma (PC-3), and epidermoid carcinoma cells (A431).

[1] = test system: human endocervical adenocarcinoma (KB3.1); test: Cytotoxicity (MTT) assay, KB3.1; assay type: cell-based; conditions: for IC50: Homo sapiens, KB 3-1, n.a. = no activity
From the text: as §1

[2] = test system: human prostate carcinoma (PC-3); test: Cytotoxicity (MTT) assay, PC-3; assay type: cell-based
From the text: as §1, with “(A431). Epothilone B was used as a positive control.” for “(A431).”

[3] = test system: human breast adenocarcinoma (MCF-7); test: Cytotoxicity (MTT) assay, MCF-7; assay type: cell-based
From the text: as §1, with “(A431). Epothilone B was used as a positive control.” for “(A431).”

[4] = test system: human ovarian cancer (SKOV-3); test: Cytotoxicity (MTT) assay, SKOV-3; assay type: cell-based
[5] = test system: human epidermoid carcinoma (A431); test: Cytotoxicity (MTT) assay, A431; assay type: cell-based
From the text: as §1, with “(A431). Epothilone B was used as a positive control.” for “(A431).”

[6] = test system: human lung carcinoma (A549); test: Cytotoxicity (MTT) assay, A549; assay type: cell-based
From the text: as §1, with “(A431). Epothilone B was used as a positive control.” for “(A431).”

[7] = test system: Staphylococcus aureus (DSM 346); test: Antimicrobial assay (MIC), S. aureus; assay type: cell-based
Experimental: (§2) The antimicrobial effects of the isolated compounds were determined using our established protocols.[19] Generally, an array of clinically relevant microorganisms consisting of bacteria, namely, S. aureus (DSM 346), A. baumanii (DSM 30008), B. subtilis (DSM 10), E. coli (DSM 1116), P. aeruginosa (PA14), C. violaceum (DSM 30191), and M. smegmatis (ATCC 700084), and fungi including M. hiemalis (DSM 2656), C. albicans (DSM 1665), R. glutinis (DSM 10134), S. pombe (DSM 70572), and P. anomala (DSM 6766), were used. […] The minimum inhibitory concentrations (MIC) were recorded after an overnight incubation as the lowest concentration under which no microbial growth was visualized. The microorganisms were obtained from the German Collection of Microorganisms and Cell Cultures (DSMZ, Braunschweig, Germany).

[8] = test system: Escherichia coli (DSM 1116); test: Antimicrobial assay (MIC), E. coli; assay type: cell-based; conditions: overnight incubation, n.i. = no inhibition up to 67 μg/mL
Experimental: as §2

[9] = test system: Bacillus subtilis (DSM 10); test: Antimicrobial assay (MIC), B. subtilis; assay type: cell-based
Experimental: as §2

[10] = test system: Pseudomonas aeruginosa (PA14); test: Antimicrobial assay (MIC), P. aeruginosa; assay type: cell-based; conditions: overnight incubation, n.i. = no inhibition up to 67 μg/mL
Experimental: as §2

[11] = test system: Pichia anomala (DSM 6766); test: Antimicrobial assay (MIC), P. anomala; assay type: cell-based
Experimental: as §2

[12] = test system: Candida albicans (DSM 1665); test: Antimicrobial assay (MIC), C. albicans; assay type: cell-based
Experimental: as §2

[13] = test system: Acinetobacter baumanii (DSM 30008); test: Antimicrobial assay (MIC), A. baumanii; assay type: cell-based; conditions: overnight incubation, n.i. = no inhibition up to 67 μg/mL
Experimental: as §2

[14] = test system: Chromobacterium violaceum (DSM 30191); test: Antimicrobial assay (MIC), C. violaceum; assay type: cell-based; conditions: overnight incubation, n.i. = no inhibition up to 67 μg/mL
Experimental: as §2

[15] = test system: Schizosaccharomyces pombe (DSM 70572); test: Antimicrobial assay (MIC), S. pombe; assay type: cell-based
Experimental: as §2

[16] = test system: Mucor hiemalis (DSM 2656); test: Antimicrobial assay (MIC), M. hiemalis; assay type: cell-based
Experimental: as §2

[17] = test system: Rhodotorula glutinis (DSM 10134); test: Antimicrobial assay (MIC), R. glutinis; assay type: cell-based
Experimental: as §2

[18] = test system: Mycobacterium smegmatis (ATCC 700084); test: Antimicrobial assay (MIC), M. smegmatis; assay type: cell-based
Experimental: as §2

all tested cell lines = test: Cytotoxicity (MTT) assay, all tested cell lines; assay type: cell-based; conditions: read-out: IC50 values, range against all tested cell lines
From the text: as §1, with “(A431). Epothilone B was used as a positive control.” for “(A431).”

[19] = parameters: method as in doi:10.1021/np50038a013; conditions: previous report; cited from earlier work
[20] = SK-OV-3, SKOV-3, read-out: IC50
[21] = overnight incubation, n.i. = no inhibition up to 67 μg/mL
[22] = Pichia anomala, overnight incubation, n.i. = no inhibition up to 67 μg/mL
[23] = Mycobacterium smegmatis, overnight incubation, n.i. = no inhibition up to 67 μg/mL
[24] = DSM346, overnight incubation, n.i. = no inhibition up to 67 μg/mL, read-out: MIC
[25] = DSM2656, overnight incubation, n.i. = no inhibition up to 67 μg/mL, read-out: MIC
[26] = DSM10, overnight incubation, n.i. = no inhibition up to 67 μg/mL, read-out: MIC

Row | Compound | MIC [8] | MIC [10] | MIC [13] | MIC [14] | MIC [7, 21] | MIC [9, 21] | MIC [11, 22] | MIC [12, 21] | MIC [15, 21] | MIC [16, 21] | MIC [17, 21] | MIC [18, 23] | other results
1 | CC1(C)CC2C=C(C=O)[C@]3(C=O)C[C@]3(C)C2C1 (single isomer, unassigned; (+)) [Compound 8, (+)-isovelleral] | n.i. | n.i. | n.i. | n.i. | – | – | – | – | – | – | – | – | IC50 (mouse fibroblast (L929)): 10.3 µM; IC50 [1]: 10.3 µM; IC50 ([2]; PC-3, read-out: IC50): 3.9 µM; IC50 ([3]; MCF7, MCF-7, read-out: IC50): 2800 nM; IC50 [4, 20]: 5.2 µM; IC50 ([5]; A-431, A431, read-out: IC50): 3.4 µM; IC50 ([6]; A549, read-out: IC50): 30.2 µM; MIC ([7]; DSM346): 33.3 µg/mL (≈ 143 µM); MIC ([9]; DSM10): 33.3 µg/mL (≈ 143 µM); MIC ([11]; Hansenula anomala, DSM6766): 16.6 µg/mL (≈ 71.5 µM); MIC ([12]; DSM1665): 33.3 µg/mL (≈ 143 µM); MIC ([15]; DSM70572): 33.3 µg/mL (≈ 143 µM); MIC ([16]; DSM2656): 8.3 µg/mL (≈ 35.7 µM); MIC ([17]; DSM10134): 16.6 µg/mL (≈ 71.5 µM); MIC ([18]; Mycolicibacterium smegmatis, ATCC700084): 33.3 µg/mL (≈ 143 µM); IC50 (all tested cell lines): 2.8 to 30.2 µM; mutagenicity [19]: revealed mutagenicity
2 | CC(C)=CCC(CC1=CC(=O)OC1)C(=O)O (stereo not shown) [Compound 2, vibralactones J] | n.i. | n.i. | n.i. | n.i. | n.i. | n.i. | n.i. | n.i. | n.i. | n.i. | n.i. | n.i. | –
3 | CC(C)=CCC(/C=C(\CO)CCO)C(=O)O (stereo not shown) [Compound 3, sterepinic acid A] | n.i. | n.i. | n.i. | n.i. | – | n.i. | n.i. | n.i. | n.i. | n.i. | n.i. | n.i. | cytotoxicity (in words) (mouse fibroblast (L929)): non-cytotoxic; cytotoxicity (in words) [1]: non-cytotoxic; MIC [7, 24]: 66.6 µg/mL (≈ 292 µM)
4 | CC(C)(O)[C@H]1C[C@@H](CC2=CC(=O)OC2)C(=O)O1 [Compound 4, vibralactones Z1] | n.i. | n.i. | n.i. | n.i. | n.i. | n.i. | n.i. | n.i. | n.i. | n.i. | n.i. | n.i. | –
5 | CC(C)(O)[C@H]1C[C@H](CC2=CC(=O)OC2)C(=O)O1 [Compound 5, vibralactones Z2] | n.i. | n.i. | n.i. | n.i. | – | n.i. | n.i. | n.i. | n.i. | n.i. | n.i. | n.i. | cytotoxicity (in words) (mouse fibroblast (L929)): non-cytotoxic; cytotoxicity (in words) [1]: non-cytotoxic; MIC [7, 24]: 66.6 µg/mL (≈ 277 µM)
6 | CC(C)=CC[C@H]1C=C(CO)C=COC1=O [Compound 6, 1,5-secovibralactone] | n.i. | n.i. | n.i. | n.i. | n.i. | n.i. | n.i. | n.i. | n.i. | – | n.i. | n.i. | MIC [16, 25]: 66.6 µg/mL (≈ 320 µM)
7 | CC(=O)O[C@@H]1CC2C3=C(C(C)C)CC[C@]3(C)CC[C@@]2(C)[C@@H](OC2OC[C@@H](O)[C@H](O)[C@H]2O)C=C1C=O (stereo partly shown) [Compound 7, erinacine P] | n.i. | n.i. | n.i. | n.i. | – | – | n.i. | n.i. | n.i. | – | – | n.i. | IC50 (mouse fibroblast (L929)): 13 µM; IC50 [1]: 5.1 µM; IC50 ([2]; PC-3, read-out: IC50): 4.9 µM; IC50 ([3]; MCF7, MCF-7, read-out: IC50): 3300 nM; IC50 [4, 20]: 7.7 µM; IC50 ([5]; A-431, A431, read-out: IC50): 3.5 µM; IC50 ([6]; A549, read-out: IC50): 14.2 µM; MIC [7, 24]: 66.6 µg/mL (≈ 135 µM); MIC [9, 26]: 33.3 µg/mL (≈ 67.6 µM); MIC [16, 25]: 66.6 µg/mL (≈ 135 µM); MIC ([17]; DSM10134, overnight incubation, n.i. = no inhibition up to 67 μg/mL, read-out: MIC): 16.6 µg/mL (≈ 33.7 µM); IC50 (all tested cell lines; range over all tested cell lines): 3.3 to 14.2 µM and 3.5 to 14.2 µM
8 | COc1ccc([C@H](O)[C@H](C)O)cc1 [Compound 11, (4-methoxyphenyl)-1,2-propanediol] | n.i. | n.i. | n.i. | n.i. | n.i. | n.i. | n.i. | n.i. | n.i. | n.i. | n.i. | n.i. | –
9 | COc1ccc(C(=O)C(C)O)cc1 (stereo not shown) [Compound 12, 2-hydroxy-(4′-methoxy)-propiophenone] | n.i. | n.i. | n.i. | n.i. | n.i. | n.i. | n.i. | n.i. | n.i. | n.i. | n.i. | n.i. | –
10 | C/C(=C\c1csc(C)n1)[C@@H]1C[C@@H]2O[C@]2(C)CCC[C@H](C)[C@H](O)[C@@H](C)C(=O)C(C)(C)[C@@H](O)CC(=O)O1 [epothilone B, Epothilone B, reference compound] | – | – | – | – | – | – | – | – | – | – | – | – | IC50 ([2]; PC-3, read-out: IC50, positive control epothilone B): 9e-05 µM; IC50 ([3]; MCF7, read-out: IC50, positive control epothilone B): 0.07 nM; IC50 ([4]; SK-OV-3, read-out: IC50, positive control epothilone B): 9e-05 µM; IC50 ([5]; A-431, read-out: IC50, positive control epothilone B): 6e-05 µM; IC50 ([6]; A549, read-out: IC50, positive control epothilone B): 5e-05 µM
11 | NC[C@H]1O[C@H](O[C@H]2[C@H](O)[C@@H](O[C@H]3O[C@H](CO)[C@@H](O)[C@H](N)[C@H]3O)[C@H](N)C[C@@H]2N)[C@H](O)[C@@H](O)[C@@H]1O [kanamycin, reference compound] | – | – | – | – | – | – | – | – | – | – | – | 1.70^K μg/mL | –
12 | C[C@@H]1[C@H](O)[C@@H](C)/C=C/C=C/CC/C=C/C=C/C=C/C=C/C(O[C@H]2O[C@H](C)[C@@H](O)[C@H](N)[C@@H]2O)CC2O[C@](O)(CC(O)C(O)CCC(O)CC(O)CC(O)CC(=O)O[C@H]1C)CC(O)C2C(=O)O (stereo partly shown) [nystatin, reference compound] | – | – | – | – | – | – | 8.30^N μg/mL | 8.30^N μg/mL | 8.30^N μg/mL | 8.30^N μg/mL | 4.20^N μg/mL | – | –
13 | CN(C)[C@@H]1C(O)=C(C(N)=O)C(=O)[C@@]2(O)C(O)=C3C(=O)c4c(O)cccc4[C@@](C)(O)[C@H]3[C@H](O)[C@@H]12 [oxytetracycline, reference compound] | – | – | – | – | – | – | – | – | – | – | – | – | MIC [9, 26]: 16.6 µg/mL (≈ 36.1 µM)
14 | Gentamycin [reference compound] | 0.83^G μg/mL | 0.42^G μg/mL | – | 1.67^G μg/mL | 0.42^G μg/mL | – | – | – | – | – | – | – | –
